Patent US7135615B2, “Chromosome doubling method” (The Curators of the University of Missouri, priority 2001, dated 2006)
Several values for one entry are separate records, joined by “and”; a condition that tells them apart may be missing. Equal entries are not always repeated. Marks after values point to notes of the source that are not given here.

Assays:
[1] = system: maize haploid seedlings of origin Oh43 × Mo17; assay: doubled haploid production trial, Oh43 × Mo17 haploids (Example 4); details: 600 kPa, 2 days; for Ear: No. of kernels produced/ear: selfed
Procedure: (§1) Ten to nineteen plants were treated for each plot. Self pollinations were conducted on these treated haploids if there were fertile sectors on the tassel. Pollen grains were collected carefully on a sheet of paper and transferred to the silks repeatedly. Silks and husks were cut back prior to pollination in order to permit maximum seed set. The numbers of fertile tassel and ear sectors, as well as the numbers of anthers and selfed kernels were recorded. Statistical analyses were as described above.

[2] = system: haploid seedlings; assay: survival of haploid seedlings treated with nitrous oxide gas (all experiments); type: in vivo, maize (Zea mays L.); details: 450 haploid seedlings treated
Procedure: The germinated seeds were transferred to small plastic pots filled with ProMix, a peat moss based growing medium (Hummert, St. Louis, Miss.). The seedlings were grown in a greenhouse for one to four weeks. Stock 6 induced 1–5 putative haploid kernels per ear (purple kernel with white embryo or yellow kernel with purple embryo) on all genotypes. A total of 715 putative haploid kernels were planted for the experiments. Most of them (94%) were determined to be haploid from their morphology and high sterility. The remaining 4.7% were misclassified F1s, 1.1% were hypoploids, and 0.3% (one plant induced from B73 and one plant from Oh43×Mol7) were spontaneous doubled haploids. […] In a second study, fourteen out of 50 treated Oh43 haploid seedlings died from fungus attack.

[3] = system: maize haploid seedlings of origin W22 × W23; assay: doubled haploid production trial, W22 × W23 haploids (Example 4); details: 600 kPa, 2 days; for Ear: No. of kernels produced/ear: selfed
Procedure: as §1

[4] = system: maize haploid seedlings of origin B55 × A619; assay: doubled haploid production trial, B55 × A619 haploids (Example 4); details: 600 kPa, 2 days; for Ear: No. of kernels produced/ear: selfed
Procedure: as §1

[5] = system: maize haploid seedlings of origin B55; assay: doubled haploid production trial, B55 haploids (Example 4); details: for Ear: Plants with kernels after selfing % / Tassel: No. of fertile anthers extruded/tassel / Tassel: No. of fertile sectors/tassel / Tassel: Plants with fertile sectors % / Ear: Plants with kernels after selfing No. / Tassel: Plants with fertile sectors No. / No. of plants Survived / Ear: No. of kernels produced/ear: B55 haploids, 600 kPa, 2 days; for Ear: No. of kernels produced/ear: selfed
Procedure: as §1

[6] = system: maize haploid seedlings of origin B73; assay: doubled haploid production trial, B73 haploids (Example 4); details: for Ear: Plants with kernels after selfing % / Tassel: No. of fertile anthers extruded/tassel / Tassel: No. of fertile sectors/tassel / Tassel: Plants with fertile sectors % / Ear: Plants with kernels after selfing No. / Tassel: Plants with fertile sectors No. / No. of plants Survived / Ear: No. of kernels produced/ear: B73 haploids, 600 kPa, 2 days; for Ear: Plants with kernels after selfing No. / Tassel: Plants with fertile sectors No.: 11 survived; for No. of plants Survived: 11 treated; for Ear: No. of kernels produced/ear: selfed
Procedure: as §1

[N-]=[N+]=O [nitrous oxide gas, nitrous oxide]
Ear: Plants with kernels after selfing % ([1]; 5 leaf stage): 27 n.s. % | Tassel: No. of fertile anthers extruded/tassel ([1]; 5 leaf stage): 4.2 /tassel | Tassel: Plants with fertile sectors % ([1]; 5 leaf stage): 73** % | Ear: Plants with kernels after selfing No. ([1]; 5 leaf stage, 11 survived): 3 | Tassel: Plants with fertile sectors No. ([1]; 5 leaf stage, 11 survived): 8 | No. of plants Survived ([1]; 5 leaf stage, 11 treated): 11 | Ear: No. of kernels produced/ear ([1]; 5 leaf stage): 0.5 n.s. /ear | Ear: Plants with kernels after selfing % ([1]; 6 leaf stage): 38% | Tassel: No. of fertile anthers extruded/tassel ([1]; 6 leaf stage): 29.8** /tassel | Tassel: No. of fertile sectors/tassel ([1]; 6 leaf stage): 2.5** /tassel | Tassel: Plants with fertile sectors % ([1]; 6 leaf stage): 100** % | Ear: Plants with kernels after selfing No. ([1]; 6 leaf stage, 13 survived): 5 | Tassel: Plants with fertile sectors No. ([1]; 6 leaf stage, 13 survived): 13 | No. of plants Survived ([1]; 6 leaf stage, 14 treated): 13 | Ear: No. of kernels produced/ear ([1]; 6 leaf stage): 3.8 /ear | Ear: Plants with kernels after selfing % ([1]; 7 leaf stage): 13% | Tassel: No. of fertile anthers extruded/tassel ([1]; 7 leaf stage): 8.3* /tassel | Tassel: No. of fertile sectors/tassel ([1]; 7 leaf stage): 1.8** /tassel | Tassel: Plants with fertile sectors % ([1]; 7 leaf stage): 73** % | Ear: Plants with kernels after selfing No. ([1]; 7 leaf stage, 15 survived): 2 | Tassel: Plants with fertile sectors No. ([1]; 7 leaf stage, 15 survived): 11 | No. of plants Survived ([1]; 7 leaf stage, 19 treated): 15 | Ear: No. of kernels produced/ear ([1]; 7 leaf stage): 0.6 /ear | survived the treatment [2]: 92% | Ear: Plants with kernels after selfing % ([3]; 5 leaf stage): 45 n.s. % | Tassel: No. of fertile anthers extruded/tassel ([3]; 5 leaf stage): 27.6 n.s /tassel | Tassel: No. of fertile sectors/tassel ([3]; 5 leaf stage): 1.1 n.s. /tassel | Tassel: Plants with fertile sectors % ([3]; 5 leaf stage): 64 n.s. % | Ear: Plants with kernels after selfing No. ([3]; 5 leaf stage, 11 survived): 5 | Tassel: Plants with fertile sectors No. ([3]; 5 leaf stage, 11 survived): 7 | No. of plants Survived ([3]; 5 leaf stage, 12 treated): 11 | Ear: No. of kernels produced/ear ([3]; 5 leaf stage): 9.5 n.s. /ear | Ear: Plants with kernels after selfing % ([3]; 6 leaf stage): 40% | Tassel: No. of fertile anthers extruded/tassel ([3]; 6 leaf stage): 18.0 /tassel | Tassel: No. of fertile sectors/tassel ([3]; 6 leaf stage): 2.1 /tassel | Tassel: Plants with fertile sectors % ([3]; 6 leaf stage): 60% | Ear: Plants with kernels after selfing No. ([3]; 6 leaf stage, 10 survived): 4 | Tassel: Plants with fertile sectors No. ([3]; 6 leaf stage, 10 survived): 6 | No. of plants Survived ([3]; 6 leaf stage, 12 treated): 10 | Ear: No. of kernels produced/ear ([3]; 6 leaf stage): 3.3 /ear | Ear: Plants with kernels after selfing % ([3]; 7 leaf stage): 43% | Tassel: No. of fertile anthers extruded/tassel ([3]; 7 leaf stage): 7.1 /tassel | Tassel: No. of fertile sectors/tassel ([3]; 7 leaf stage): 1.9 /tassel | Tassel: Plants with fertile sectors % ([3]; 7 leaf stage): 71% | Ear: Plants with kernels after selfing No. ([3]; 7 leaf stage, 7 survived): 3 | Tassel: Plants with fertile sectors No. ([3]; 7 leaf stage, 7 survived): 5 | No. of plants Survived ([3]; 7 leaf stage, 8 treated): 7 | Ear: No. of kernels produced/ear ([3]; 7 leaf stage): 11.4 /ear | Ear: Plants with kernels after selfing % ([4]; 5 leaf stage): 33% | Tassel: No. of fertile anthers extruded/tassel ([4]; 5 leaf stage): 25.7** /tassel | Tassel: No. of fertile sectors/tassel ([4]; 5 leaf stage): 1.1* /tassel | Tassel: Plants with fertile sectors % ([4]; 5 leaf stage): 67** % | Ear: Plants with kernels after selfing No. ([4]; 5 leaf stage, 15 survived): 5 | Tassel: Plants with fertile sectors No. ([4]; 5 leaf stage, 15 survived): 10 | No. of plants Survived ([4]; 5 leaf stage, 15 treated): 15 | Ear: No. of kernels produced/ear ([4]; 5 leaf stage): 1.3 /ear | Ear: Plants with kernels after selfing % ([4]; 6 leaf stage): 50** % | Tassel: No. of fertile anthers extruded/tassel ([4]; 6 leaf stage): 109.9** /tassel | Tassel: No. of fertile sectors/tassel ([4]; 6 leaf stage): 3.1** /tassel | Tassel: Plants with fertile sectors % ([4]; 6 leaf stage): 71** % | Ear: Plants with kernels after selfing No. ([4]; 6 leaf stage, 14 survived): 7 | Tassel: Plants with fertile sectors No. ([4]; 6 leaf stage, 14 survived): 10 | No. of plants Survived ([4]; 6 leaf stage, 14 treated): 14 | Ear: No. of kernels produced/ear ([4]; 6 leaf stage): 9.5* /ear | Ear: Plants with kernels after selfing % ([4]; 7 leaf stage): 62** % | Tassel: No. of fertile anthers extruded/tassel ([4]; 7 leaf stage): 60.2** /tassel | Tassel: No. of fertile sectors/tassel ([4]; 7 leaf stage): 3.9** /tassel | Tassel: Plants with fertile sectors % ([4]; 7 leaf stage): 92** % | Ear: Plants with kernels after selfing No. ([4]; 7 leaf stage, 13 survived): 8 | Tassel: Plants with fertile sectors No. ([4]; 7 leaf stage, 13 survived): 12 | No. of plants Survived ([4]; 7 leaf stage, 13 treated): 13 | Ear: No. of kernels produced/ear ([4]; 7 leaf stage): 15.7** /ear | successful self pollination rate ([5]; B55 haploids after nitrous oxide treatment): 90–100% | Ear: Plants with kernels after selfing % ([5]; 5 leaf stage): 60** % | Tassel: No. of fertile anthers extruded/tassel ([5]; 5 leaf stage): 161.3** /tassel | Tassel: No. of fertile sectors/tassel ([5]; 5 leaf stage): 1.6 /tassel | Tassel: Plants with fertile sectors % ([5]; 5 leaf stage): 90** % | Ear: Plants with kernels after selfing No. ([5]; 5 leaf stage, 10 survived): 6 | Tassel: Plants with fertile sectors No. ([5]; 5 leaf stage, 10 survived): 9 | No. of plants Survived ([5]; 5 leaf stage, 10 treated): 10 | Ear: No. of kernels produced/ear ([5]; 5 leaf stage): 31.5* /ear | Ear: Plants with kernels after selfing % ([5]; 6 leaf stage): 90% | Tassel: No. of fertile anthers extruded/tassel ([5]; 6 leaf stage): 380 /tassel and 380.1** /tassel | Tassel: No. of fertile sectors/tassel ([5]; 6 leaf stage): 4.5** /tassel | Tassel: Plants with fertile sectors % ([5]; 6 leaf stage): 100** % | Ear: Plants with kernels after selfing No. ([5]; 6 leaf stage, 10 survived): 9 | Tassel: Plants with fertile sectors No. ([5]; 6 leaf stage, 10 survived): 10 | No. of plants Survived ([5]; 6 leaf stage, 10 treated): 10 | Ear: No. of kernels produced/ear ([5]; 6 leaf stage): 61.6 /ear | Ear: Plants with kernels after selfing % ([5]; 7 leaf stage): 78** % | Tassel: No. of fertile anthers extruded/tassel ([5]; 7 leaf stage): 401.3** /tassel | Tassel: No. of fertile sectors/tassel ([5]; 7 leaf stage): 10.6** /tassel | Tassel: Plants with fertile sectors % ([5]; 7 leaf stage): 100** % | Ear: Plants with kernels after selfing No. ([5]; 7 leaf stage, 9 survived): 7 | Tassel: Plants with fertile sectors No. ([5]; 7 leaf stage, 9 survived): 9 | No. of plants Survived ([5]; 7 leaf stage, 9 treated): 9 | Ear: No. of kernels produced/ear ([5]; 7 leaf stage): 65.6** /ear | ear and silk abnormalities ([6]; B73 haploids treated at the 7 leaf stage): deformed ears and delayed silk emergence | Ear: Plants with kernels after selfing % ([6]; 5 leaf stage): 36 n.s. % | Tassel: No. of fertile anthers extruded/tassel ([6]; 5 leaf stage): 3.5 n.s /tassel | Tassel: No. of fertile sectors/tassel ([6]; 5 leaf stage): 0.5 n.s. /tassel | Tassel: Plants with fertile sectors % ([6]; 5 leaf stage): 45 n.s. % | Ear: Plants with kernels after selfing No. ([6]; 5 leaf stage): 4 | Tassel: Plants with fertile sectors No. ([6]; 5 leaf stage): 5 | No. of plants Survived ([6]; 5 leaf stage): 11 | Ear: No. of kernels produced/ear ([6]; 5 leaf stage): 2.4 n.s. /ear | Ear: Plants with kernels after selfing % ([6]; 6 leaf stage): 45% | Tassel: No. of fertile anthers extruded/tassel ([6]; 6 leaf stage): 13.2 /tassel | Tassel: Plants with fertile sectors % ([6]; 6 leaf stage): 64% | Ear: Plants with kernels after selfing No. ([6]; 6 leaf stage): 5 | Tassel: Plants with fertile sectors No. ([6]; 6 leaf stage): 7 | No. of plants Survived ([6]; 6 leaf stage): 11 | Ear: No. of kernels produced/ear ([6]; 6 leaf stage): 10.7 /ear | Ear: Plants with kernels after selfing % ([6]; 7 leaf stage): 18% | Tassel: No. of fertile anthers extruded/tassel ([6]; 7 leaf stage): 14.9 /tassel | Tassel: No. of fertile sectors/tassel ([6]; 7 leaf stage): 1.4 /tassel | Tassel: Plants with fertile sectors % ([6]; 7 leaf stage): 64% | Ear: Plants with kernels after selfing No. ([6]; 7 leaf stage): 2 | Tassel: Plants with fertile sectors No. ([6]; 7 leaf stage): 7 | No. of plants Survived ([6]; 7 leaf stage): 11 | Ear: No. of kernels produced/ear ([6]; 7 leaf stage): 0.9 /ear
